Test: recombinant UMI read abundance after kanamycin selection (control-corrected) (log10(CPM+1)); higher = more efficient recombination; extreme values may be limits of the assay; sequences stand for … in AGTGCAGAGAAAATCGGCCAGTTTTCTCTGCCTGCAGTCCGCATGCCGTGGGACCCCTTGGGTTCTAACCTGTTGCCTAGATTTATGCAGCGGACTGCCTTTCTCCCAAAGTGATAAACCGG…AGGTTGGTTTCACT; site = the 11-nt donor
Procedure, shortened: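 Under IPTG (0.07 mM) plus kanamycin, or without selection, Escherichia coli carrying a UMI-tagged donor and donor-binding-loop pair library and a target plasmid for the IS621 bridge recombinase were plated in two replicates. Recombinant UMIs were PCR-amplified across the donor–target junction and sequenced. Counts were converted to CPM, averaged over replicates, scaled by control-derived factors and reported as log10(CPM+1).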
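Also: IS621 bridge recombinase in Escherichia coli cells against a fixed T5 target plasmid.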

Point of comparison: “CCCTTCTCATGGACCGGTTTTCCCGGTAATCCGTATTTGGC (site CCCTTCTCTTC)”, “recombinant UMI read abundance (log10)” value 0.00807. Against it:
- GAGCTCTCATGGACCGGTTTTCCCGGTAATCCGTATTTGAC (site GAGCTCTCTGT) — higher, 3.55
- CGGAATCCATGGACCGGTTTTCCCGGTAATCCGTATTTGAT (site CGGAATCCTAG) — within 0.2 log units, 0
- TCTTGCCCATGGACCGGTTTTCCCGGTAATCCGTATTTGAT (site TCTTGCCCTAT) — within 0.2 log units, 0.0104
- TTCACTCCATGGACCGGTTTTCCCGGTAATCCGTATTTGAG (site TTCACTCCTCT) — within 0.2 log units, 0
- TAAAGGCCATGGACCGGTTTTCCCGGTAATCCGTATTTGTA (site TAAAGACCTTA) — within 0.2 log units, 0.00739
- CAATACCCATGGACCGGTTTTCCCGGTAATCCGTATTTGCT (site CAATTCCCTAG) — within 0.2 log units, 0
- CTGGAAACATGGACCGGTTTTCCCGGTAATCCGTATTTGCA (site CTGGAAGCTTG) — higher, 1.51
- GGAGTGGCATGGACCGGTTTTCCCGGTAATCCGTATTTGGT (site GGAATGGCTAC) — higher, 0.749
- ATTGAGACATGGACCGGTTTTCCCGGTAATCCGTATTTGGT (site ATTGAGTCTAC) — higher, 1.06
- CAAGCAGCATGGACCGGTTTTCCCGGTAATCCGTATTTGCT (site CAAGCAGCTAC) — within 0.2 log units, 0.0274
- ATGTAAGCATGGACCGGTTTTCCCGGTAATCCGTATTTGGC (site ATGTACGCTGC) — higher, 0.982
- TCACACACATGGACCGGTTTTCCCGGTAATCCGTATTTGTG (site TCACACACTCA) — within 0.2 log units, 0.198
- CATTCGACATGGACCGGTTTTCCCGGTAATCCGTATTTGGG (site CAATCGACTCC) — within 0.2 log units, 0.0123
- ACGAAGCCATGGACCGGTTTTCCCGGTAATCCGTATTTGGG (site TCGAAGCCTCC) — within 0.2 log units, 0.113
- TATGTGGCATGGACCGGTTTTCCCGGTAATCCGTATTTGTG (site TATTTGGCTCA) — within 0.2 log units, 0.0197
- TAATACTCATGGACCGGTTTTCCCGGTAATCCGTATTTGCA (site TCATACTCTTG) — higher, 1.69
- GGTAGGTCATGGACCGGTTTTCCCGGTAATCCGTATTTGTT (site GGTATGTCTAA) — within 0.2 log units, 0.0159
- AGATTCCCATGGACCGGTTTTCCCGGTAATCCGTATTTGTG (site AGGTTCCCTCA) — within 0.2 log units, 0.0134
- GCTAGTGCATGGACCGGTTTTCCCGGTAATCCGTATTTGGT (site TCTAGTGCTAC) — higher, 0.581
- GCCACGACATGGACCGGTTTTCCCGGTAATCCGTATTTGTA (site GCCACGTCTTA) — higher, 0.283
- CTCCAGCCATGGACCGGTTTTCCCGGTAATCCGTATTTGAG (site CTCCAGCCTCT) — within 0.2 log units, 0.0271
- TCACTATCATGGACCGGTTTTCCCGGTAATCCGTATTTGCA (site TCACTATCTTG) — higher, 2.41
- GCGAAGCCATGGACCGGTTTTCCCGGTAATCCGTATTTGGG (site GCGAGGCCTCC) — within 0.2 log units, 0.0307
- CCTAAAGCATGGACCGGTTTTCCCGGTAATCCGTATTTGAT (site TCTAAAGCTAT) — within 0.2 log units, 0.00543
- ATCCGCGCATGGACCGGTTTTCCCGGTAATCCGTATTTGCG (site ATCCGCGCTCG) — higher, 0.503
- AAAGCTCCATGGACCGGTTTTCCCGGTAATCCGTATTTGCG (site AAAGCTCCTCG) — higher, 0.472
- CGGGAACCATGGACCGGTTTTCCCGGTAATCCGTATTTGAT (site CGGGAACCTTT) — within 0.2 log units, 0.00554
- CTGGAAACATGGACCGGTTTTCCCGGTAATCCGTATTTGCA (site CTCGAAACTTG) — within 0.2 log units, 0
- TTAGCTGCATGGACCGGTTTTCCCGGTAATCCGTATTTGTG (site TGAGCTGCTCA) — within 0.2 log units, 0.0117
- ATGGAGGCATGGACCGGTTTTCCCGGTAATCCGTATTTGTG (site TTGGAGGCTCA) — higher, 0.765
- CAGTGCTCATGGACCGGTTTTCCCGGTAATCCGTATTTGAA (site CACTGCTCTTT) — higher, 0.28
- CAGAATCCATGGACCGGTTTTCCCGGTAATCCGTATTTGAT (site CAGAATCCTAT) — higher, 1.84
- TTTGCGGCATGGACCGGTTTTCCCGGTAATCCGTATTTGCT (site TTTGCGCCTAG) — within 0.2 log units, 0.00251
- ATAAGGTCATGGACCGGTTTTCCCGGTAATCCGTATTTGCA (site ATAAGGTCTTG) — higher, 2.96
- TGCACAGCATGGACCGGTTTTCCCGGTAATCCGTATTTGGC (site TGCACAGCTGC) — higher, 1.05
- TAGCGCGCATGGACCGGTTTTCCCGGTAATCCGTATTTGTC (site TAGCGCGCTGA) — higher, 2.77
